Data as given in PMC6696198, “Thyroid Peroxidase Activity is Inhibited by Phenolic Compounds—Impact of Interaction” (Molecules, 2019).
Several values for one entry are separate records, joined by “and”; a condition that tells them apart may be missing. Equal entries are not always repeated. Entries after “also recorded” stand apart in the source; their conditions may differ. Where two headings read alike, the source gives them in different places. Blank lines part the entries; values can stand above or below the molecule they belong to.

How the values were obtained:
[1] = system: TPO; set-up: method as in PMID 25822105; conditions: according to literature data ref 22; read-out: IC50 of TPO inhibition (positive controls); cited from earlier work
[2] = ABTS radical scavenging (in vitro antioxidant capacity) assay; conditions: n = 9
Protocol: The ABTS radical scavenging activity was determined according to Re et al. with some modifications. 250 µL of ABTS solution was mixed with 10 µL of each pure polyphenols solutions (concentration 50 µg/mL) and measured at the wavelength 724 nm using a UV/Vis spectrophotometer (BioTek, Model Epoch2TC, Winooski, Vermont, VT, USA) after 15 min of incubation in room temperature. The inhibition percentage of ABTS discoloration was calculated using the following equation: AA=Ac−Ap/Ac×100% Where Ac—the absorbance of control, Ap—the absorbance of pure polyphenols solutions.

[3] = molecular target: T1, thyroid peroxidase (TPO) (Sus scrofa, UniProt P09933); experiment: TPO inhibitory assay (guaiacol oxidation); assay type: biochemical, porcine; conditions: for Mode of Inhibition: Lineweaver-Burk plot, with respect to guaiacol; for Vmax: TPO in presence of inhibitor; for Vmax / Ki / IC50: n = 9; for IC50: porcine thyroid TPO, guaiacol assay, read-out: IC50 of TPO inhibition
T1 construct: The frozen thyroid gland was cut into slices and homogenized in a buffer containing 0.25 M sucrose; from tissue; host or cells: porcine thyroid gland (homogenate, centrifuged, salted-out to 60%)
T1 sequence (P09933 15-926): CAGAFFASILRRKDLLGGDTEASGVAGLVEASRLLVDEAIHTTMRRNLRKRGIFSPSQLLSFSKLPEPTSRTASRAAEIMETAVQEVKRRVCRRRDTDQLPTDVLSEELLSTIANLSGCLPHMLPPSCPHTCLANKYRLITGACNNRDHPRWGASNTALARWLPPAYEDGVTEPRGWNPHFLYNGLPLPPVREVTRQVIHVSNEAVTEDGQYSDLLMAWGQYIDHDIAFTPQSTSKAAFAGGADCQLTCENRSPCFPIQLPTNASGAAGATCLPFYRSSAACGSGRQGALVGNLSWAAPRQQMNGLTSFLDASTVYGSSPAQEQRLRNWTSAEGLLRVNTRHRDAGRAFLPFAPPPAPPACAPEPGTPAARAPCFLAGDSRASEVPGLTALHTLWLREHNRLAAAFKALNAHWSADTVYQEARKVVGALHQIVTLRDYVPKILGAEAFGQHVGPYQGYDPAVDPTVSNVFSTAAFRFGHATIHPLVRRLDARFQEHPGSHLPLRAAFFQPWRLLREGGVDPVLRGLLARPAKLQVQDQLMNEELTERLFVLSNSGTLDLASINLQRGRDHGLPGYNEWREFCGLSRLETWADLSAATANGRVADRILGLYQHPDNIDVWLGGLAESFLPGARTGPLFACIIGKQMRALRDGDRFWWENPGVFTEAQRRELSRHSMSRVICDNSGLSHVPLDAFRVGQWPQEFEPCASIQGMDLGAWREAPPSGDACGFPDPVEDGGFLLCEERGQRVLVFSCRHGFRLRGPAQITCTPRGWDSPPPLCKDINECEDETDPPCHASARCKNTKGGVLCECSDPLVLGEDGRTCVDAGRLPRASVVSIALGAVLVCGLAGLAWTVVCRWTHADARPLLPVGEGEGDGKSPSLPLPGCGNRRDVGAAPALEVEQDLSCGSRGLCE
Protocol: Porcine thyroid glands were obtained at a local slaughterhouse (Lublin, Poland) and stored in −20 °C until used.
The assay was prepared according to Jomaa with some modifications. The frozen thyroid gland was cut into slices and homogenized in a buffer containing 0.25 M sucrose, 2 mM Tris—HCl, 100 mM KCl, 40 mM NaCl, 10 mM MgCl2 (pH 7.4) with a Philips homogenizer. The thyroid gland was than centrifuged two times at 4000 RPM per 15 min in temperature +4 °C. The enzyme protein was then salted-out to 60%. The supernatant was used for further analysis and was stored in a −20 °C freezer.
The activity of the enzyme was assayed using a guaiacol assay. […] The reaction components were incubated in 37 °C before the assignment. […] The assay was conducted as follows: To a cuvette, 180 µL of buffer, 100 µL of guaiacol and 40 µL of TPO were mixed to the final volume of […]. The cuvette was then placed into the spectrophotometer and the reaction was started by the addition of 100 µL H2O2. Absorbance readings were recorded every minute for a total of 3 min. Verification of the TPO activity was accomplished by linearly correlating the TPO concentration with absorbance readings.
(§1) The assay was used according to Jomaa with some modification. The measurement was made using a plate spectrophotometer (BioTek, Model Epoch2TC, Winooski, Vermont, VT, USA) in 96–well plates at a wavelength of 470 nm. The assay was conducted as follows: 50 µl of buffer, 40 µl of pure substance solution, 50 µL of guaiacol, 20 µL of TPO enzyme and 50 µL H2O2. The total volume of the mixture was 210 µL. In the sample probe, extracts were replaced by the buffer. Absorbance readings were recorded every minute for a total of 3 min in 37^o. As a unit of TPO activity is defined as the change of absorbation per minute.
TPO inhibitory activity was calculated as follows: %inhibition=(1−ΔA/mintest/ΔAminblank)×100 Where: ΔA/min test is the linear absorbance change per minute of the test material and ΔA min blank is the linear change in absorbance per minute of the blank.
The IC50 value was determined by the interpolation of dose response curves. […] The mode of inhibition of the enzyme was performed using the Lineweaver–Burk plot.

[4] = molecular target: T1, thyroid peroxidase (TPO); experiment: Effect of pure substance combinations on TPO activity (isobolographic analysis); assay type: biochemical, porcine; set-up: key to CI (Combination Index): CI <1 = synergy, =1 = addition, >1 = antagonism; conditions: TPO inhibition; for CI (Combination Index): n = 9
Protocol: as §1
Results (type and strength of interactions) can be shown on the isobolograms and described by the combination Index (CI). When CI is lower than one, indicates synergy; when CI is equal to one, indicates addition; when CI is higher than one, indicates antagonism. Isobolograms were performed according to Chou. […] Pure substances were mixed in various volume ratios: 1:4, 4:1, 3:2, 2:3, 1:1. All of the mixtures were made in combinations of two substances. The inhibitory assay was made using the same proportions as with single solutions.

[5] = system: TPO; set-up: method as in PMID 8924586; conditions: read-out: IC50 in relation to TPO; cited from earlier work
[6] = after meal containing 150 g fried onions (equivalent to 64 mg quercetin); cited from earlier work
[7] = set-up: method as in doi:10.1039/C6RA28237G; conditions: rats, cited from earlier work
[8] = set-up: method as in PMID 25978046; conditions: Melissa officinalis extract containing 500 mg rosmarinic acid, fasted state; cited from earlier work
[9] = six weeks supplementation with rutin, volunteers; cited from earlier work
[10] = mixture with Chlorogenic Acid, listed as Rosmarinic acid
[11] = mixture with Quercetin, listed as Rosmarinic acid
[12] = mixture with Chlorogenic Acid, listed as Rutin

Compound: Cn1cc[nH]c1=S [Methimazole]
IC50 [1]: 10.7 µM

Compound: CCCc1cc(=O)[nH]c(=S)[nH]1 [Propylthiouracil]
IC50 [1]: 4 µM

IC50 [2]: 407 ± 14 µM
Compound: Cc1c(C)c2c(c(C)c1O)CCC(C)(C(=O)O)O2 (centres unmarked) [Trolox, 6-hydroxy-2,5,7,8-tetramethylchroman-2-carboxylic acid, reference compound]

Mode of Inhibition [3]: noncompetitive | Vmax [3]: 149.25 ± 5.97 a * ΔAU/min | Ki [3]: 170 ± 5 µM | IC50 [3]: 1440 ± 41 µM | Type of interaction (scale according to Chou) ([4]; mixture with Quercetin, listed as Chlorogenic acid): Antagonism | Type of interaction (scale according to Chou) ([4]; mixture with Rutin): Slight synergism
Compound: O=C(/C=C/c1ccc(O)c(O)c1)O[C@@H]1C[C@](O)(C(=O)O)C[C@@H](O)[C@H]1O [chlorogenic acid]
Type of interaction (scale according to Chou) ([4]; mixture with Quercetin): antagonism; also recorded: antagonistic interaction | Type of interaction (scale according to Chou) ([4]; mixture with Rosmarinic Acid): antagonistic interaction; also recorded: Moderate antagonism

Compound: O=c1c(O)c(-c2ccc(O)c(O)c2)oc2cc(O)cc(O)c12 [quercetin]
IC50 [2]: 450 µM and 447 µM | Mode of Inhibition [3]: uncompetitive | Vmax [3]: 149.25 ± 4.35 a ΔAU/min | Type of interaction (scale according to Chou) ([4]; mixture with Chlorogenic Acid): Antagonism | Type of interaction (scale according to Chou) ([4]; mixture with Rosmarinic Acid): Moderate antagonism | IC50 [5]: 2.4 µM | human plasma concentration of quercetin [6]: about 0.65 umol/l

IC50 [2]: 151 ± 6 µM | Mode of Inhibition [3]: competitive | Vmax [3]: 175.44 ± 7.01 b ΔAU/min | Ki [3]: 1 µM | IC50 [3]: 4 ± 0.14 µM | Type of interaction (scale according to Chou) ([4]; mixture with Chlorogenic Acid): moderate antagonism | CI (Combination Index) ([4]; mixture with Chlorogenic Acid): 1.25 | CI (Combination Index) [4, 10]: 1.25 ± 0.05 | Type of interaction (scale according to Chou) [4, 10]: Moderate antagonism | CI (Combination Index) ([4]; mixture with Quercetin): 1.45 | CI (Combination Index) [4, 11]: 1.45 ± 0.03 | Type of interaction (scale according to Chou) [4, 11]: Moderate antagonism | Type of interaction (scale according to Chou) ([4]; mixture with Rutin): nearly additive | CI (Combination Index) ([4]; mixture with Rutin): 1.06 ± 0.05 | Type of interaction (scale according to Chou) ([4]; mixture with Rutin, listed as Rosmarinic acid): Nearly additive
Compound: O=C(/C=C/c1ccc(O)c(O)c1)O[C@H](Cc1ccc(O)c(O)c1)C(=O)O [rosmarinic acid]
Type of interaction (scale according to Chou) ([4]; mixture with Quercetin): moderate antagonism; also recorded: antagonistic interaction | absolute bioavailability ([7]; oral 25 mg/kg): 1.28% | absolute bioavailability ([7]; oral 50 mg/kg): 0.91% | absolute bioavailability ([7]; oral […]): 1.69% | maximum serum concentration [8]: 162.20 nM | time of peak serum concentration of total rosmarinic acid [8]: 1 h

Compound: C[C@@H]1O[C@@H](OC[C@H]2O[C@@H](Oc3c(-c4ccc(O)c(O)c4)oc4cc(O)cc(O)c4c3=O)[C@H](O)[C@@H](O)[C@@H]2O)[C@H](O)[C@H](O)[C@H]1O [rutin]
IC50 [2]: 292 ± 10 µM | Mode of Inhibition [3]: competitive | Vmax [3]: 149.25 ± 5.01 a ΔAU/min | Ki [3]: 130 ± 3 µM | Type of interaction (scale according to Chou) ([4]; mixture with Chlorogenic Acid): slight synergism; also recorded: synergistically | CI (Combination Index) ([4]; mixture with Chlorogenic Acid): 0.88 | CI (Combination Index) [4, 12]: 0.88 ± 0.02 | Type of interaction (scale according to Chou) [4, 12]: Slight synergism | Type of interaction (scale according to Chou) ([4]; mixture with Quercetin): additive interaction; also recorded: nearly additive | CI (Combination Index) ([4]; mixture with Quercetin): 0.096 and 0.096 ± 0.05 | Type of interaction (scale according to Chou) ([4]; mixture with Quercetin, listed as Rutin): additively; also recorded: Nearly additive | Type of interaction (scale according to Chou) ([4]; mixture with Rosmarinic Acid): additively; also recorded: additive interaction | Type of interaction (scale according to Chou) ([4]; mixture with Rosmarinic Acid, listed as Rutin): Nearly additive | IC50 [5]: 40.6 µM | increase in plasma isorhamnetin [9]: 10 fold | increase in plasma kaempferol [9]: 3 fold | increase in plasma quercetin [9]: 2.5 fold
